Where two headings read alike, the source gives them in different places.
Assays:
[1] = biological target: T1, DGAT1 (Homo sapiens, UniProt O75907); test: Human DGAT1 IC50 enzyme assay (Flashplate, 14C-labeled acyl-CoA); assay type: biochemical; parameters: made in house
T1 sequence (O75907 1-488): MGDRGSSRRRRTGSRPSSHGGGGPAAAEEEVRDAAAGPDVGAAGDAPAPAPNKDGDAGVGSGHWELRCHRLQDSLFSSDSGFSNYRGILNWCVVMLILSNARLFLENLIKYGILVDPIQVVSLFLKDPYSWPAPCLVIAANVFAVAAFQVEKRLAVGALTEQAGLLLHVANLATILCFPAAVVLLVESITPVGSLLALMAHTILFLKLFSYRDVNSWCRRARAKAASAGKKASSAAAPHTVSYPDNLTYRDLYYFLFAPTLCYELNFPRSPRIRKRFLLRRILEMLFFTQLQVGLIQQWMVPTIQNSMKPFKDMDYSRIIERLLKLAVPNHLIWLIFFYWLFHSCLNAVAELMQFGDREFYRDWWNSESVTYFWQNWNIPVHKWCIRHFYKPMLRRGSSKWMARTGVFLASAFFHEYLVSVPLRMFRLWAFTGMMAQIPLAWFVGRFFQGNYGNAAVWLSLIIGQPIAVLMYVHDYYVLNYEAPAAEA
Protocol: The ability of compounds to inhibit DGAT enzyme activity is determined by calculating IC50 values of test compounds. Ki values of DGAT1 are calculated as follows: Cheng-Prusoff equation: Ki=IC50/(1+[S]/Km)
(1) Human DGAT1 IC50 (nM) Experiment
Human DGAT1 activity was determined as follows:
Expressing human DGAT1 enzyme, used diacylglycerol and 14C-labeled acyl-CoA as the substrate, choose PE Company Flashplate testing board to build DGAT1 enzyme reaction system. 14C-labeled acyl-CoA binds to diacylglycerol by covalent bonding after enzymology reaction, and generates the product of 14C-labeled triglyceride. 14C-labeled acyl-CoA substrate is dissolved in reaction solution and 14C-labeled triglyceride product combine with phospholipids of Flashplate plate bottom layer, thus effectively separate labeled substrates and products. The radioactive of 14C-labeled triglyceride which is combined with phospholipid layer is counted, and the potencies of DGAT-1 inhibition for the compounds are determined by calculating the IC50 values.

[2] = Plasma pharmacokinetics in male SD rats; assay type: in vivo; details: male, SD, plasma, rat
Protocol: (3) Pharmacokinetics of Test Compounds
The purpose of this study is to determine the plasma pharmacokinetics of male SD rats. Two animals will receive a solution of test article in vehicle by single intravenous bolus via tail vein; the dosage is 2 mg/kg. Blood samples are taken at specified time points (0, 0.0833, 0.25, 0.5, 1, 2, 4, 7, 24 h) after dosing. Another two animals will receive a solution or suspension of TA in vehicle by oral gavage at 10 mg/kg. The schedule for sample collection is 0.5, 1, 2, 3, 4, 6, 24 h after dosing. A LC/MS/MS method is used to measure the concentration of test compound in plasma. Non-compartmental pharmacokinetic analysis is performed on the plasma concentration-time data. PK parameters of calculations are done using Phoenix WinNonlin. 6.2.1 software program.

[3] = average of first and second, read-out: hDGAT1 IC50(nM) Average
[4] = first determination, read-out: hDGAT1 IC50(nM) First
[5] = second determination, read-out: hDGAT1 IC50(nM) Second

| SMILES | IC50 [1, 3] [nM] | IC50 [1, 4] [nM] | IC50 [1, 5] [nM] | AUC(0-t) ([2]; iv, 1.78-2.06 mg/kg as printed in each cell, read-out: AUC0-1 (ng · n/mL)) [ng·h/mL] | bioavailability ([2]; oral, 10 mg/kg) [%] |
| --- | --- | --- | --- | --- | --- |
| CC(C)(Cn1cc(-c2ccc(N3CCOc4ncnc(N)c4C3=O)cc2Cl)cn1)C(=O)O [Compound 71, 3-(4-(4-(4-amino-5-oxo-7,8-dihydropyrimido [5,4-f][1,4]oxazepin-6(5H)-yl)-2-chlorophenyl)-1H-pyrazol-1-yl)-2,2-dimethylpropanoic acid] | 30.6 | 35.9 | 25.3 | – | – |
| Cc1cc(N2CCOc3ncnc(N)c3C2=O)cc(C)c1-c1cn(CC(=O)O)nc1C [Compound 73, 2-(4-(4-(4-amino-5-oxo-7,8-dihydropyrimido [5,4-f][1,4]oxazepin-6(5H)-yl)-2,6-dimethylphenyl)-3-methyl-1H-pyrazol-1-yl)acetic acid] | 34.4 | 24.5 | 44.3 | – | – |
| Cc1nn(CCC(=O)O)cc1-c1ccc(N2CCOc3ncnc(N)c3C2=O)cc1Cl [Compound 78, 3-(4-(4-(4-amino-5-oxo-7,8-dihydropyrimido [5,4-f][1,4]oxazepin-6(5H)-yl)-2-chlorophenyl)-3-methyl-1H-pyrazol-1-yl)propanoic acid] | 54.8 | 69.2 | 40.3 | – | – |
| Nc1ncnc2c1C(=O)N(c1ccc(-c3cnn(CC4CC4)c3)c(Cl)c1)CCO2 [Compound 87, 4-amino-6-(3-chloro-4-(1-(cyclopropylmethyl)-1H-pyrazol-4-yl)phenyl)-7,8-dihydropyrimido[5,4-f][1,4]oxazepin-5(6H)-one] | 46.7 | 49.3 | 44.2 | – | – |
| CC(C)(C)Cn1cc(-c2ccc(N3CCOc4ncnc(N)c4C3=O)cc2Cl)cn1 [Compound 88] | 25.7 | 27 | 24.4 | – | – |
| CCc1cc(N2CCOc3ncnc(N)c3C2=O)ccc1-c1cnn(CC(C)C)c1 [Compound 90, 4-amino-6-(3-ethyl-4-(1-isobutyl-1H-pyrazol-4-yl)phenyl)-7,8-dihydropyrimido [5,4-f][1,4]oxazepin-5(6H)-one] | 60 | 62 | 58 | – | – |
| CC(C)(F)Cn1cc(-c2ccc(N3CCOc4ncnc(N)c4C3=O)cc2Cl)cn1 [Compound 91, 4-amino-6-(3-chloro-4-(1-(2-fluoro-2-methylpropyl)-1H-pyrazol-4-yl)phenyl)-7,8-dihydropyrimido[5,4-f][1,4]oxazepin-5(6H)-one] | 20 | 12.5 | 27.5 | – | – |
| Cc1cc(N2CCOc3ncnc(N)c3C2=O)cc(C)c1-c1c(C)nn(CC(F)(F)F)c1C [Compound 93, 4-amino-6-(4-(3,5-dimethyl-1-(2,2,2-trifluoroethyl)-1H-pyrazol-4-yl)-3,5-dimethylphenyl)-7,8-dihydropyrimido[5,4-f][1,4]oxazepin-5(6H)-one] | 69.4 | 64.5 | 74.2 | – | – |
| CC(C)(F)Cn1ccc(-c2ccc(N3CCOc4ncnc(N)c4C3=O)cc2Cl)n1 [Compound 95, 4-amino-6-(3-chloro-4-(1-(2-fluoro-2-methylpropyl)-1H-pyrazol-3-yl)phenyl)-7,8-dihydropyrimido[5,4-f][1,4]oxazepin-5(6H)-one] | 42.5 | 32.2 | 52.9 | – | – |
| CC(C)Cn1cc(-c2ccc(N3C(=O)c4c(N)ncnc4OC[C@H]3C)cc2Cl)cn1 [Compound 96, (R)-4-amino-6-(3-chloro-4-(1-isobutyl-1H-pyrazol-4-yl)phenyl)-7-methyl-7,8-dihydropyrimido[5,4-f][1,4] oxazepin-5-(6H)-one] | 70.5 | 69.4 | 71.7 | – | – |
| Cc1cc(N2CCOc3ncnc(N)c3C2=O)cc(C)c1-c1cn(CC(C)(C)F)nc1C [Compound 97, 4-amino-6-(4-(1-(2-fluoro-2-methylpropyl)-3-methyl-1H-pyrazol-4-yl)-3,5-dimethylphenyl)-7,8-dihydropyrimido[5,4-f][1,4]oxazepin-5(6H)-one] | 26.9 | 30.3 | 23.4 | – | – |

Further lines, results first:

| IC50 [1, 3] [nM] | IC50 [1, 4] [nM] | IC50 [1, 5] [nM] | AUC(0-t) ([2]; iv, 1.78-2.06 mg/kg as printed in each cell, read-out: AUC0-1 (ng · n/mL)) [ng·h/mL] | bioavailability ([2]; oral, 10 mg/kg) [%] | SMILES |
| --- | --- | --- | --- | --- | --- |
| 23.5 | 14.6 | 32.4 | – | – | Cc1nn(CCC(=O)O)c(C)c1-c1ccc(N2CCOc3ncnc(N)c3C2=O)cc1 [Compound 76] |
| 52.1 | 46.4 | 57.8 | – | – | CCn1cc(-c2ccc(N3CCOc4ncnc(N)c4C3=O)cc2Cl)cn1 [Compound 79, 4-amino-6-(3-chloro-4-(1-ethyl-1H-pyrazol-4-yl)phenyl)-7,8-dihydropyrimido [5,4-f][1,4]oxazepin-5(6H)-one] |
| 45.6 | 52.8 | 38.4 | – | – | Cc1cc(N2CCOc3ncnc(N)c3C2=O)cc(C)c1-c1cn(CCC(=O)O)nc1C [Compound 83, 3-(4-(4-(4-amino-5-oxo-7,8-dihydropyrimido [5,4-f][1,4]oxazepin-6(5H)-yl)-2,6-dimethylphenyl)-3-methyl-1H-pyrazol-1-yl)propanoic acid] |
| 61.7 | 59.6 | 63.7 | – | – | CC(C)(Cn1cc(-c2ccc(N3CCOc4ncnc(N)c4C3=O)cc2Cl)cn1)C(=O)N1CCCC1 [Compound 85] |
| 80.7 | 71.2 | 90.1 | – | – | CN(C)C(=O)C(C)(C)Cn1cc(-c2ccc(N3CCOc4ncnc(N)c4C3=O)cc2Cl)cn1 [Compound 89, 3-(4-(4-(4-amino-5-oxo-7,8-dihydropyrimido [5,4-f][1,4]oxazepin-6(5H)-yl)-2-chlorophenyl)-1H-pyrazol-1-yl)-N,N,2,2-tetramethylpropanamide] |
| 59.1 | 63.1 | 55.1 | – | – | COC(C)(C)Cn1cc(-c2ccc(N3CCOc4ncnc(N)c4C3=O)cc2Cl)cn1 [Compound 94, 4-amino-6-(3-chloro-4-(1-(2-methoxy-2-methylpropyl)-1H-pyrazol-4-yl)phenyl)-7,8-dihydropyrimido[5,4-f][1,4]oxazepin-5(6H)-one] |
| – | – | – | 2920 | 109 | Nc1ncnc2c1C(=O)N(c1ccc([C@H]3CC[C@H](CC(=O)O)CC3)cc1)CCO2 [PF-04620110, reference compound] |
